Consider three molecules from US20240092758A1, “IMIDAZOLO INDAZOLE COMPOUNDS AS JAK INHIBITORS” (Theravance Biopharma R&D IP, LLC, priority 2021, published 2024).

In one data set the target is JAK3 (Homo sapiens (Human), UniProt P52333). As to the kind of experiment: Biochemical JAK kinase assay (LanthaScreen), JAK3. The settings on record: read-out: JAK3 pKi (converted). The method in brief: (§1)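 LanthaScreen format: phospho-STAT1 (pTyr701) detected with 2 nM Tb antibody after 10 mM EDTA quench. Kinase step used Km-level ATP and 200 nM STAT1 peptide, 1 h at ambient after 1 h pre-incubation. Inhibition fitted to IC50, reported as pKi.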
Sequence of JAK3 (P52333 whole entry): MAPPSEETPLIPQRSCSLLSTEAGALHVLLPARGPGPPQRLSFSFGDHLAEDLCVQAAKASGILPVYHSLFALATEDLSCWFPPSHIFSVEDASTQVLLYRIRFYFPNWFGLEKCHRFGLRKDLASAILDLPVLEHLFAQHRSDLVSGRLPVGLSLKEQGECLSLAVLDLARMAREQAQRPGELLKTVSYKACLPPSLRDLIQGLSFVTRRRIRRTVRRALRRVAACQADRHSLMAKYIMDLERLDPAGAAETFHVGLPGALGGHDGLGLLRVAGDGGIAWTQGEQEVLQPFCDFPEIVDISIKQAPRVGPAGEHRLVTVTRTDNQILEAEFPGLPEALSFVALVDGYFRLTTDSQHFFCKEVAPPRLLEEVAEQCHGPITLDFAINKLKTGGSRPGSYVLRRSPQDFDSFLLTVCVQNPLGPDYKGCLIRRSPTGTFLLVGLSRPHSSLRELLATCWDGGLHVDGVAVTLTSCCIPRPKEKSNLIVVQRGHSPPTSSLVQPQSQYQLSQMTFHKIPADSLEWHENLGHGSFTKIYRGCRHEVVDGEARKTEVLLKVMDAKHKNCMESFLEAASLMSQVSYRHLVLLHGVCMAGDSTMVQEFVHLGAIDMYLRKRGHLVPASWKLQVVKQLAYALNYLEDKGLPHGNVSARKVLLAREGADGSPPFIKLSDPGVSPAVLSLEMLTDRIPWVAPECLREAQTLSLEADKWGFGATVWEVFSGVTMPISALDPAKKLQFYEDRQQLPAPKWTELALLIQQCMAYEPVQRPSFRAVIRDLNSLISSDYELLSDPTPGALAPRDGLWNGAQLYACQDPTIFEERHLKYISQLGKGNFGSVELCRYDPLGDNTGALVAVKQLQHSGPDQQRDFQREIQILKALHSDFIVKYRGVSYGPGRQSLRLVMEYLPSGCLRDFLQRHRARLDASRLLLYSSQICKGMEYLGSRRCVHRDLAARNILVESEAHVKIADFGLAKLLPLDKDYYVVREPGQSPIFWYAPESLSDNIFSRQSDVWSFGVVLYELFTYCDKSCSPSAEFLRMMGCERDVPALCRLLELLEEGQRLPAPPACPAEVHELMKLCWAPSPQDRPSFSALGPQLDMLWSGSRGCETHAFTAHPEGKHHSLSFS

For a further data set, the target named is JAK2 (Homo sapiens (Human), UniProt O60674). As to the kind of experiment: Biochemical JAK kinase assay (LanthaScreen), JAK2. The settings on record: read-out: JAK2 pKi (converted). The method in brief: as §1
Sequence of JAK2 (O60674 whole entry): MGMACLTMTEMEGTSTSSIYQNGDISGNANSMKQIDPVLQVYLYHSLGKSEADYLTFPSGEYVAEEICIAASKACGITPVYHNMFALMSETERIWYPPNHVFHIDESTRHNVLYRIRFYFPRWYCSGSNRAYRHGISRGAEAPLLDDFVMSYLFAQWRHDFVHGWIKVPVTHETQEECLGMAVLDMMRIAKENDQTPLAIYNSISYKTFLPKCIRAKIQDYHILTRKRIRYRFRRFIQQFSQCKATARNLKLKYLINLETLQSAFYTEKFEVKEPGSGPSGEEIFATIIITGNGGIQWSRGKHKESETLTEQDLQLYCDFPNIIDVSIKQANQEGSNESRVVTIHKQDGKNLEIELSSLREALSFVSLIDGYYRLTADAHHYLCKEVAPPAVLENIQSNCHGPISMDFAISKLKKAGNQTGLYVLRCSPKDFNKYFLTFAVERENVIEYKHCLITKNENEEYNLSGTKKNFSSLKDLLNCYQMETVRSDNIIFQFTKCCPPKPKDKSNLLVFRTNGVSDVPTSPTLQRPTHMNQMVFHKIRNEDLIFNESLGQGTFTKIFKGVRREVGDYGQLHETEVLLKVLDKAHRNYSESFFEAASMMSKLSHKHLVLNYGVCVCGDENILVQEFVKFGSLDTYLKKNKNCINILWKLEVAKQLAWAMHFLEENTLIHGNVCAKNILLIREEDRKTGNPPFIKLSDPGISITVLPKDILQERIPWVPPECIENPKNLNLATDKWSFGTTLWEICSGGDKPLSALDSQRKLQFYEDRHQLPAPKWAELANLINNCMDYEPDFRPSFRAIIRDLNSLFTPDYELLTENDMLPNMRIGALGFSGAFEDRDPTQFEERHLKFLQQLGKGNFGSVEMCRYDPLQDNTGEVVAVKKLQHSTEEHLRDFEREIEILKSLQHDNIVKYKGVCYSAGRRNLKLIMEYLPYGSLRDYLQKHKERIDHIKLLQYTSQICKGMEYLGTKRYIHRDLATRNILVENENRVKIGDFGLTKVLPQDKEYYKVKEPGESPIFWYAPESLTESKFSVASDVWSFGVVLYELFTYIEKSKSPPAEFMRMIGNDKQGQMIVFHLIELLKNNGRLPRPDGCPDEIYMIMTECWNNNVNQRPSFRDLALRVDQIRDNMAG
Data set [1] is described as follows: Pharmacokinetics in plasma and lung in mouse after oral aspiration administration. In kind it is in vivo. As to conditions: male CD1 mice; for Lung Tissue AUC(0-24) / AUC(0-t): 0.2 mg/mL, two 25 μL increments; for Lung Tissue:Plasma AUC ratio: lung AUC to plasma AUC; for AUC(0-t): mouse, inhaled or intranasal, 0.01 mg/mouse, plasma, read-out: Plasma AUC(0-24). The essentials: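 Male CD1 mice given 0.2 mg/mL compound in 20% propylene glycol/pH 4 citrate buffer, two 25 μL increments by oral aspiration into the trachea under isoflurane. Plasma and lung homogenate sampled 0.167–24 hr and measured by LC-MS/MS. Non-compartmental analysis gave AUC(0-inf); lung-to-plasma ratio from lung (μg*hr/g) over plasma (μg*hr/mL) AUC.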

Data set [2] has as its system IL-13 induced pSTAT6 in lung tissue. The data set can be described thus: Murine model of IL-13 induced pSTAT6 induction in lung tissue. The settings on record: balb/c mice, test compound 0.5 mg/mL, 50 μL by oral aspiration, IL-13 challenge eight hours later, lungs collected one hour after. In kind it is in vivo, mouse. As for the experimental part:
IL-13 binds to cell surface receptors activating members of the Janus family of kinases (JAK) which then phosphorylate STAT6 and subsequently activate further transcription pathways. In the described model, a dose of IL-13 was delivered locally into the lungs of mice to induce the phosphorylation of STAT6 (pSTAT6) which is then measured as the endpoint.
Adult balb/c mice from Harlan were used in the assay. On the day of study, animals were lightly anesthetized with isoflurane and administered either vehicle or test compound (0.5 mg/mL, […] total volume over several breaths) via oral aspiration.
Animals were placed in lateral recumbency post dose and monitored for full recovery from anesthesia before being returned to their home cage. Eight hours later, animals were once again briefly anesthetized and challenged with either vehicle or IL-13 (0.03 μg total dose delivered, 50 μL total volume) via oral aspiration before being monitored for recovery from anesthesia and returned to their home cage. One hour after vehicle or IL-13 administration, lungs were collected for both pSTAT6 detection using an AlphaLISA Immunoassay (PerkinElmer) and analyzed for total drug concentration.
Selected compounds of the present disclosure were tested in the assay. Activity in the model is evidenced by a decrease in the level of pSTAT6 present in the lungs of treated animals at 9 hours compared to the vehicle treated, IL-13 challenged control animals. The difference between the control animals which were vehicle-treated, IL-13 challenged and the control animals which were vehicle-treated, vehicle challenged dictated the 0% and 100% inhibitory effect, respectively, in any given experiment.

In the next data set the target is JAK1 (Homo sapiens (Human), UniProt P23458). The data set can be described thus: Biochemical JAK kinase assay (LanthaScreen), JAK1. The settings on record: read-out: JAK1 pKi (converted). The essentials:
as §1

Sequence of JAK1 (P23458 whole entry): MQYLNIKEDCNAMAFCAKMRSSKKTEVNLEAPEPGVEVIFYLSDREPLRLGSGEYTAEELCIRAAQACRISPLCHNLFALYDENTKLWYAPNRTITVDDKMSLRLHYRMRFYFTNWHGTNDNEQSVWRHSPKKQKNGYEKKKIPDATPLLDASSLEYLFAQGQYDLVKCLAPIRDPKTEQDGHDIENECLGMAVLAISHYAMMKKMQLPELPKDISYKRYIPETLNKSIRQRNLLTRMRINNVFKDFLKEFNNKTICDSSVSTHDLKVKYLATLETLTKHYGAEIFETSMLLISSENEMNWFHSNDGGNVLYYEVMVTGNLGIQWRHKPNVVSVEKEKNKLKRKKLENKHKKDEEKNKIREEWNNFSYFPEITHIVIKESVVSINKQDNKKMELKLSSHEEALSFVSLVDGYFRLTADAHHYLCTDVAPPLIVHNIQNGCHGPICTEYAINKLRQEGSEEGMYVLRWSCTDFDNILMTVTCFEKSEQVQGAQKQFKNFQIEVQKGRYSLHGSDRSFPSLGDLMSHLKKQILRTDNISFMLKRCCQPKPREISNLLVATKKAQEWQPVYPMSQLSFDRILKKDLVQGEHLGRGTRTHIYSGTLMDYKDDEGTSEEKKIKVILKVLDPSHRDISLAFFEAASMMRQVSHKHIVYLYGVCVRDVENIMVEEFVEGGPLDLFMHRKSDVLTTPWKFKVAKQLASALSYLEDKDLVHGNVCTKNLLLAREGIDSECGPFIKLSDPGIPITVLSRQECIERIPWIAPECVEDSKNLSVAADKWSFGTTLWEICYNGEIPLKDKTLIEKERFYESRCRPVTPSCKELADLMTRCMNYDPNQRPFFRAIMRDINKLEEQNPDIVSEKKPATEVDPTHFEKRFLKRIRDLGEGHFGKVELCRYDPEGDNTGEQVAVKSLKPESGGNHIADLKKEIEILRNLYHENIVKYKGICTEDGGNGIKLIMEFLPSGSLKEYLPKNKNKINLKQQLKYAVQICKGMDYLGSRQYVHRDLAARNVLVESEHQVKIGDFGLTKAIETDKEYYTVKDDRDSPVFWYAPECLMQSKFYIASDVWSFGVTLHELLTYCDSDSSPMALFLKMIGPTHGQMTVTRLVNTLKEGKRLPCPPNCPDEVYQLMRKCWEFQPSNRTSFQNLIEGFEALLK

For `CCc1cc(O)ccc1-c1ccc2c(-c3nc(C4=CCNC4)c[nH]3)n[nH]c2c1F` [Compound 1, 4-(3-(4-(2,5-dihydro-1H-pyrrol-3-yl)-1H-imidazol-2-yl)-7-fluoro-1H-indazol-6-yl)-3-ethylphenol], the Ki on JAK3 is 0.1 to 1 nM. The Ki on JAK2 is 0.1 to 1 nM. Also, in data set [1], the “Lung Tissue AUC(0-24)” value is “B (B denotes a value between 50 and 100)”; the “Lung Tissue:Plasma AUC ratio” value is “C (C denotes a ratio between 100 and 200)”; the AUC(0-t) lay in the range of 500 to 1000 ng·h/mL. Also, the “% pSTAT6 inhibition at 8 hours” value in data set [2] is “A (A represents between 80% and 100% inhibition)”. In addition, the Ki at JAK1 was 0.1 to 1 nM.
Turning to `CCc1cc(O)ccc1-c1ccc2c(-c3nc(C4=CCNCC4)c[nH]3)n[nH]c2c1F` [Compound 2, 3-ethyl-4-(7-fluoro-3-(4-(1,2,3,6-tetrahydropyridin-4-yl)-1H-imidazol-2-yl)-1H-indazol-6-yl)phenol], the Ki at JAK3 is 1 to 10 nM; at JAK2 it was 0.1 to 1 nM; on JAK1 it was 0.1 to 1 nM. Moreover, the “Lung Tissue AUC(0-24)” value in data set [1] was “B (B denotes a value between 50 and 100)”. Besides, the “Lung Tissue:Plasma AUC ratio” value in data set [1] is “C (C denotes a ratio between 100 and 200)”. In addition, the AUC(0-t) in data set [1] is 500 to 1000 ng·h/mL. For the same molecule, in data set [2], the “% pSTAT6 inhibition at 8 hours” value was “A (A represents between 80% and 100% inhibition)”.
Consider `CCc1cc(O)ccc1-c1ccc2c(-c3nc(C4=CCNCC4)c[nH]3)n[nH]c2c1` [Compound 3, 3-ethyl-4-(3-(4-(1,2,3,6-tetrahydropyridin-4-yl)-1H-imidazol-2-yl)-1H-indazol-6-yl)phenol], for which, on JAK3, the Ki is 1 to 10 nM. Also, the Ki at JAK2 is 0.1 to 1 nM. Further, in data set [1], the “Lung Tissue AUC(0-24)” value was “A (For the Lung Tissue AUC(0-24), A denotes a value between 100 and 200)”; the “Lung Tissue:Plasma AUC ratio” value is “C (C denotes a ratio between 100 and 200)”; the AUC(0-t) was 500 to 1000 ng·h/mL. Moreover, the “% pSTAT6 inhibition at 8 hours” value in data set [2] is “A (A represents between 80% and 100% inhibition)”. Besides, the Ki on JAK1 is 0.1 to 1 nM.
